In patent US11957759B1, “Rapidly accelerated fibrosarcoma (RAF) degrading compounds and associated methods of use” (Arvinas Operations, Inc., priority 2022, dated 2024):

Key:
B-RAF G466V = biological target: T1, B-RAF G466V (Homo sapiens, UniProt P15056, G466V); test: Target protein degradation, assay B: T-Rex 293 cells, HA-B-RAF_G466V, 96 well format; assay type: cell-based; conditions: T-Rex 293 HA-B-RAF_G466V cells, 24 hours, Examples 1-82
T1 construct: expressed in transfected cells; host or cells: T-Rex 293 cells (Invitrogen #R71007)
How it was run: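 T-Rex 293 cells stably carrying doxycycline-inducible HA-B-RAF G466V (0.75 ng/mL doxycycline) treated 24 h at 37 °C with compound, 30 nM to 3 pM final, 0.1% DMSO. Fixed, permeabilised, anti-HA immunofluorescence quantified by high-content imaging; DC50 and Dmax (% of control) derived.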

B-RAF V600E = biological target: T2, B-RAF V600E (Homo sapiens, UniProt P15056, V600E); test: Target protein degradation, assay A: T-Rex 293 cells, HA-B-RAF_V600E, 96 well format; assay type: cell-based; conditions: T-Rex 293 HA-B-RAF_V600E cells, 24 hours, Examples 1-82
T2 construct: expressed in transfected cells; host or cells: T-Rex 293 cells (Invitrogen #R71007)
How it was run: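 T-Rex 293 cells stably expressing doxycycline-inducible HA-B-RAF V600E (1 ng/mL doxycycline) treated 24 h at 37 °C with compound, final 1 μM to 0.1 nM in 0.1% DMSO. Fixed, permeabilized cells immunostained for HA and imaged by high-content microscopy; DC50 and Dmax (% of control) reported.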

T1 sequence (P15056 whole entry G466V): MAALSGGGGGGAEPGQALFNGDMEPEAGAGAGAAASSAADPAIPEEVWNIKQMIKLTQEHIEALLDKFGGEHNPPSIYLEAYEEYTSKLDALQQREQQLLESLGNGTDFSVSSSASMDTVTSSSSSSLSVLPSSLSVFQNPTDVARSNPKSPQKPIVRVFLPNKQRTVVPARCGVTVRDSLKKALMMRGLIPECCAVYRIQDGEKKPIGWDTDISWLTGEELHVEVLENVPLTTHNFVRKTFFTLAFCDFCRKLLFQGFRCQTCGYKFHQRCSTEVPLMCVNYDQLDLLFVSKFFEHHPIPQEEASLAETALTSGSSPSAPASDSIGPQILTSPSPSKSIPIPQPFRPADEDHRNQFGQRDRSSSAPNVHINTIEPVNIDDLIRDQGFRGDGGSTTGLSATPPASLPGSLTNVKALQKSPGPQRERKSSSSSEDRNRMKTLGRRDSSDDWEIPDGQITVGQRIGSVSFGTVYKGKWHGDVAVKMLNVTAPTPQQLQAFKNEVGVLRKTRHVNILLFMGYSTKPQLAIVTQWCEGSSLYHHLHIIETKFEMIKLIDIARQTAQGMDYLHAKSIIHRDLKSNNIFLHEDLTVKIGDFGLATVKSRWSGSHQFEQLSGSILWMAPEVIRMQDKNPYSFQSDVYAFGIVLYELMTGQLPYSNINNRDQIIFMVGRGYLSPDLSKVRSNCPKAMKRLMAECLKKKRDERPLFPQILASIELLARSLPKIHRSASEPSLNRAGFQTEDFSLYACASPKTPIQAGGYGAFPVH
T2 sequence (P15056 whole entry V600E): as the sequence (P15056 whole entry G466V) above, with V466G, V600E counted along it

Structure (SMILES)	DC50 (B-RAF G466V) [µM]	Dmax (B-RAF G466V) [%]	DC50 (B-RAF V600E) [µM]	Dmax (B-RAF V600E) [%]
N#Cc1c(NS(=O)(=O)N2CC[C@@H](F)C2)ccc(F)c1Oc1ccc2ncn(C3CCN(CCN4CCN(c5ccc6c(c5)CN(C5CCC(=O)NC5=O)C6=O)CC4)CC3)c(=O)c2c1 (stereo partly drawn) [Example 7, (3R)-N-[2-cyano-3-({3-[1-(2-{4-[2-(2,6-dioxopiperidin-3-yl)-1-oxo-2,3-dihydro-1H-isoindol-5-yl]piperazin-1-yl}ethyl)piperidin-4-yl]-4-oxo-3,4-dihydroquinazolin-6-yl}oxy)-4-fluorophenyl]-3-fluoropyrrolidine-1-sulfonamide]	0.01 to 0.03	35 to 70	> 0.5	35 to 70
N#Cc1c(NS(=O)(=O)N2CC[C@@H](F)C2)ccc(F)c1Oc1ccc2ncn(-c3ccc(N4CCN(C(=O)CC5(O)CCN(c6ccc(C7CCC(=O)NC7=O)cc6F)CC5)CC4)cc3)c(=O)c2c1 (stereo partly drawn) [Example 66, (3R)-N-{2-cyano-3-[(3-(4-[4-(2-{1-[4-(2,6-dioxopiperidin-3-yl)-2-fluorophenyl]-4-hydroxypiperidin-4-yl}acetyl)piperazin-1-yl]phenyl}-4-oxo-3,4-dihydroquinazolin-6-yl)oxy]-4-fluorophenyl}-3-fluoropyrrolidine-1-sulfonamide]	> 0.03		0.05 to 0.5	35 to 70
N#Cc1c(NS(=O)(=O)N2CC[C@@H](F)C2)ccc(F)c1Oc1ccc2ncn(-c3ccc(N4CCN(C(=O)CC5(O)CCN(c6ccc(NC7CCC(=O)NC7=O)cc6F)CC5)CC4)cc3)c(=O)c2c1 (stereo partly drawn) [Example 67, (3R)-N-{2-cyano-3-[(3-(4-{4-[2-(1-{4-[(2,6-dioxopiperidin-3-yl)amino]-2-fluorophenyl}-4-hydroxypiperidin-4-yl)acetyl]piperazin-1-yl}phenyl)-4-oxo-3,4-dihydroquinazolin-6-yl]oxy}-4-fluorophenyl)-3-fluoropyrrolidine-1-sulfonamide]	> 0.03		0.05 to 0.5	35 to 70
N#Cc1c(NS(=O)(=O)N2CC[C@@H](F)C2)ccc(F)c1Oc1ccc2ncn(-c3ccc(N4CCN(C(=O)CC5(O)CCN(c6ccc(NC7CCC(=O)NC7=O)cc6F)CC5)CC4)nc3)c(=O)c2c1 (stereo partly drawn) [Example 70, (3R)-N-(2-cyano-3-{[3-(6-{4-[2-(1-{4-[(2,6-dioxopiperidin-3-yl)amino]-2-fluorophenyl}-4-hydroxypiperidin-4-yl)acetyl]piperazin-1-yl}pyridin-3-yl)-4-oxo-3,4-dihydroquinazolin-6-yl]oxy}-4-fluorophenyl)-3-fluoropyrrolidine-1-sulfonamide]	0.001 to 0.01	≤ 35	0.05 to 0.5	35 to 70
